In patent publication US4122184A, “Benzimidazole insecticides” (priority 1977, dated 1978):

Legend:
Alfalfa Weevil Larvae [1] = test: Field trial, stomach poison test; format: in vivo
Summary of the method: (§1)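 Stomach-poison feeding test on leaves taken from the infested plant and treated by atomizer spraying at 10 psi or by dipping, then air-dried. Dishes hold five or ten insects, with one or two replicates per rate; reported values average mortality on a 0 to 9 rating scale, read at 24, 48 and 72 hours.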

Aphids - Tulip Tree = test: Field trial, stomach poison test; format: in vivo
Summary of the method: as §1

Asparagus Beetles Adults [2] = test: Field trial, stomach poison test; format: in vivo
Summary of the method: as §1

[3] = tested on: Potato Flea Beetle Adults; test: Field trial, stomach poison test; format: in vivo
Summary of the method: as §1

[4] = tested on: Tarnished Plant Bug Adults; test: Field trial, stomach poison test; format: in vivo; design: key: mortality rating on a 0 to 9 scale
Summary of the method: as §1

[5] = tested on: Unidentified Green Leafhopper; test: Field trial, stomach poison test; format: in vivo; design: key: mortality rating on a 0 to 9 scale
Summary of the method: as §1

Mosquito Larvae = test: Mosquito larvae test (dip test); format: in vivo, Aedes aegypti; details: 48 h
Procedure: Aedes aegypti larvae 5 days old are allowed to feed on fresh food for at least 3 hours previous to being placed on test. Larvae are then removed from the rearing pans by pouring on a 20 mesh screen, washing with deionized water, and pooling in a 6-inch white enameled sauce pan.
Twenty larvae are placed in a 1 oz. paper cup containing 25 ml. of deionized water.
Test chemicals are dissolved in a suitable solvent and pipetted under the surface of 225 ml. of deionized water in one pint wide-mouthed Mason jar test containers and stirred. A cup containing 20 larvae in 25 ml. of water is then added. […]
Results are determined 48 hours later by counting the dead and moribund larvae. […] Moribund larvae are those that are capable of limited, or poorly coordinated, locomotion in a sluggish manner.
Live larvae respond normally and actively.

Alfalfa Weevil Larvae [6] = test: Field trial, contact poison test; format: in vivo
Summary of the method: (§2)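 Read-out: mortality rating 0–9 (0 = 0-10 percent, 9 = 91-100 percent) at 24/48/72 h, averaged per concentration. Insects were sprayed on potted-in-water host plants using an atomizer at 10 psi, with dead insects caught on paper below.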

Asparagus Beetles Adults [7] = test: Field trial, contact poison test; format: in vivo
Summary of the method: as §2

[8] = tested on: Potato Flea Beetle Adults; test: Field trial, contact poison test; format: in vivo
Summary of the method: as §2

Alfalfa Weevil Larvae [9] = test: Field trial, topical application; format: in vivo
Procedure: The results are read at 24, 48, and 72 hours when applicable. The rating scale is 0 to 9 where 0 = 0-10 percent and 9 = 91-100 percent mortality.
In a variation of the above test, 1 microliter of a test solution containing a predetermined number of micrograms of benzimidazole was applied directly to larvae or adult insects.
Using the above methods, field trials were carried out against species of 5 orders of insects. The results, which are summarized in the following tables, give the average mortality for the particular insect with a given benzimidazole for each concentration employed. […] These tables contain all results obtained during the summer trials.

[10] = tested on: Two-Spotted Spider Mite (2-SSM); test: Miticide test, acute mortality, foliar spray; format: in vivo, Tetranychus urticae
Procedure: Each 5 mg. sample of technical compound preweighed at Greenfield was dissolved in 2.5 ml. of acetone and diluted with 247.5 ml. of water containing a combination of […]
The treated cuttings were stored in the greenhouse for 24 hours before evaluation under a binocular disecting microscope in the laboratory. In evaluating the results of the miticide test, each treated cutting was removed from the test tube, observed for live and dead mites at 14 × magnification, and returned immediately to the test tube. A scale of 0-9 was used as before.
The test employing two-spotted spider mites was conducted in similar fashion except that the mites were maintained on squash seedlings or squash cuttings.

Mexican Bean Beetle = test: Field trial (first summer), topical; format: in vivo, Epilachna varivestis; details: .0625 μg/μl
Summary of the method: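 Field trial from the first summer in which 1 µl of test solution holding a set number of micrograms of benzimidazole was applied topically to larvae or adult insects. Mortality at a given route and concentration was scored on a 0–9 scale.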

Tussock Moth = test: Field trial (first summer), stomach; format: in vivo; details: 750 ppm
Zebra Caterpillar = test: Field trial (first summer), stomach; format: in vivo; details: 500 ppm
Differential Grasshopper = test: Field trial (first summer), contact; format: in vivo; details: 250 ppm
Meadow Grasshopper = test: Field trial (first summer), contact; format: in vivo; details: 125 ppm

Compound `CCCCCCOC(=O)n1c(C(F)(F)F)nc2c([N+](=O)[O-])cc(C(F)(F)F)cc21` [E, n-hexyl 2,6-bis(trifluoromethyl)-4-nitro-1-benzimidazolecarboxylate] has an average mortality rating (Alfalfa Weevil Larvae [1]; 125 ppm) of 1, an average mortality rating (Alfalfa Weevil Larvae [1]; 250 ppm) of 4 and an average mortality rating (Alfalfa Weevil Larvae [1]; 500 ppm) of 3. For the same compound, the average mortality rating (Aphids - Tulip Tree; 25 ppm) was 6, the average mortality rating (Aphids - Tulip Tree; 50 ppm) was 6 and the average mortality rating (Aphids - Tulip Tree; 100 ppm) was 8. The average mortality rating (Asparagus Beetles Adults [2]; 5 ppm) was 3, the average mortality rating (Asparagus Beetles Adults [2]; 10 ppm) was 5 and the average mortality rating (Asparagus Beetles Adults [2]; 25 ppm) was 9 (91-100 percent mortality). The average mortality rating ([3]; 10 ppm) was 9 (91-100 percent mortality), the average mortality rating ([3]; 25 ppm) was 9 (91-100 percent mortality) and the average mortality rating ([3]; 50 ppm) was 7. The average mortality rating ([3]; 100 ppm) was 8, the average mortality rating ([4]; 10 ppm) was 1 and the average mortality rating ([4]; 25 ppm) was 2. For the same compound, the average mortality rating ([4]; 50 ppm) was 3, the average mortality rating ([5]; 10 ppm) was 4 and the average mortality rating ([5]; 25 ppm) was 7. The average mortality rating ([5]; 50 ppm) was 7, the average mortality rating (Mosquito Larvae; 0.010 ppm) was 0 (0-10%) and the average mortality rating (Mosquito Larvae; 0.025 ppm) was 0 (0-10%). The average mortality rating (Mosquito Larvae; 0.05 ppm) was 1 (15-20%), the average mortality rating (Mosquito Larvae; 0.1 ppm) was 8 (85-90%) and the average mortality rating (Alfalfa Weevil Larvae [6]; 500 ppm) was 4. For the same compound, the average mortality rating (Alfalfa Weevil Larvae [6]; 750 ppm) was 2, the average mortality rating (Alfalfa Weevil Larvae [6]; 1000 ppm) was 4 and the average mortality rating (Asparagus Beetles Adults [7]; 10 ppm) was 7. The average mortality rating (Asparagus Beetles Adults [7]; 25 ppm) was 8, the average mortality rating (Asparagus Beetles Adults [7]; 50 ppm) was 9 (91-100 percent mortality) and the average mortality rating ([8]; 10 ppm) was 6. The average mortality rating ([8]; 25 ppm) was 9 (91-100 percent mortality), the average mortality rating ([8]; 50 ppm) was 9 (91-100 percent mortality) and the average mortality rating ([8]; 100 ppm) was 9 (91-100 percent mortality). The average mortality rating ([8]; 250 ppm) was 9 (91-100 percent mortality), the average mortality rating (Alfalfa Weevil Larvae [9]; 0.03 μg/μl) was 2 and the average mortality rating (Alfalfa Weevil Larvae [9]; 0.07 μg/μl) was 2. For the same compound, the average mortality rating (Alfalfa Weevil Larvae [9]; 0.1 μg/μl) was 4, the acute mortality rating ([10]; 6.25 ppm) was 3 and the acute mortality rating ([10]; 12.5 ppm) was 2. The acute mortality rating ([10]; 25 ppm) was 5, the acute mortality rating ([10]; 50 ppm) was 9 (91-100 percent mortality) and the acute mortality rating ([10]; 100 ppm) was 9 (91-100 percent mortality). For the same compound, the insect mortality rating (Mexican Bean Beetle) was 9 (91-100 percent mortality), the insect mortality rating (Tussock Moth) was 5 and the insect mortality rating (Zebra Caterpillar) was 5. For the same compound, the insect mortality rating (Differential Grasshopper) was 9 (91-100 percent mortality) and the insect mortality rating (Meadow Grasshopper) was 9 (91-100 percent mortality).
